Read-outs that look alike come from different tables or passages of the source.
Experiments:
[1] = target: water-soluble cross-linked polymer of PLP (Achromobacter lyticus, UniProt P15636); experiment: Activity to substrates (substrate specificity), cross-linked polymer; format: biochemical; details: enzyme: Cross-Linked Polymer (0.144 u); pH 9.5, 30°C; Benzoyl lysine-p-nitroanilide = 100
Experimental: (§1) The activity of the enzyme was measured as follows. […] After preliminarily warming at 30°C, 0.1 mℓ of the enzyme was added to the mixture and the mixture was reacted accurately for 25 minutes at 30°C. After completion of the reaction, 1.0 mℓ of a 45% acetic acid aqueous solution was added to discontinue the reaction. Then, the reaction liquid was colorimetrically measured at wavelength of 405 nm to determine absorbance. As an enzyme unit, an amount of enzyme producing 1 µmole/min of p-nitroaniline at 30°C was made 1 unit (u). Enzyme titer was calculated according to the following equation. [formula] […] Thereafter, activities to the respective substrates were measured according to the method for measuring activity described above. Results of Table 8 were obtained.

[2] = target: PLP prior to Polymerization (Achromobacter lyticus, UniProt P15636); experiment: Activity to substrates (substrate specificity), PLP prior to polymerization; format: biochemical; details: enzyme: PLP prior to Polymerization; pH 9.5, 30°C; Benzoyl lysine-p-nitroanilide = 100
Sequence of PLP prior to Polymerization (P15636 206-473 limits assumed): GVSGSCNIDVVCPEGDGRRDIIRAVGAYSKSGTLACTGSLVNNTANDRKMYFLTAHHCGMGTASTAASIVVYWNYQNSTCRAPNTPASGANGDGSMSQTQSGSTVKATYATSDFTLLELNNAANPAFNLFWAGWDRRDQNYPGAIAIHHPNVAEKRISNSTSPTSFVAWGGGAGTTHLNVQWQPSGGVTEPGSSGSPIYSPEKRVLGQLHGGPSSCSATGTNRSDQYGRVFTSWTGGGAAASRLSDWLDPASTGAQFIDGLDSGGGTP
Experimental: as §1

PLP-Ia = format: biochemical, Achromobacter lyticus M 497-1
Achromobacter protease I = Achromobacter protease I (Achromobacter lyticus, UniProt P15636); details: cited from earlier work
Sequence of Achromobacter protease I (P15636 206-473 limits assumed): as above

Sequence of water-soluble cross-linked polymer of PLP (P15636 206-473 limits assumed): as above

Molecule: N=C(N)NCCC[C@H](NC(=O)c1ccccc1)C(=O)Nc1ccc([N+](=O)[O-])cc1 [Benzoyl arginine-p-nitroanilide]
- Relative Activity [1]: 0.04%
- Relative Activity [2]: 0.01%

Molecule: CC(=O)N[C@@H](Cc1ccccc1)C(=O)Nc1ccc([N+](=O)[O-])cc1 [Acetylphenylalanine-p-nitroanilide]
- Relative Activity [1]: 0.00%
- Relative Activity [2]: 0.00%

Molecule: O=C(O)c1cc[c]([Hg][Cl])cc1 [p-chloromercury benzoate]
- Relative Activity (PLP-Ia; 100 µM): 94.8%
- inhibition of the enzyme (in words) (Achromobacter protease I): not inhibited

Molecule: MgCℓ₂
- Relative Activity (PLP-Ia; 1000 µM): 95.3%

Molecule: MnCℓ₂
- Relative Activity (PLP-Ia; 1000 µM): 101.3%

Molecule: [Cl-].[Na+] [NaCℓ₂]
- Relative Activity (PLP-Ia; bz-lys-p-na amidase assay, pH 9.5, 25 min, 1000 µM): 99.0%

Molecule: NCCCC[C@H](N)C(=O)Nc1ccc([N+](=O)[O-])cc1 [Lysine-p-nitroanilide]
- Relative Activity [1]: 5.6%
- Relative Activity [2]: 2.4%

Molecule: [Ca+2].[Cl-].[Cl-] [CaCℓ₂]
- Relative Activity (PLP-Ia; 1000 µM): 102.2%

Molecule: O=C(O)CI [monoiodoacetate]
- Relative Activity (PLP-Ia; 1000 µM): 84.4%

Molecule: CoCℓ₂
- Relative Activity (PLP-Ia; 1000 µM): 98.1%

Molecule: Cc1ccc(S(=O)(=O)N[C@@H](CCCNC(=N)N)C(=O)CCl)cc1 [tosyl-L-arginine chloromethyl ketone]
- Relative Activity (PLP-Ia; 100 µM): 79.1%

Molecule: O=C(N[C@@H](Cc1ccc(O)cc1)C(=O)Nc1ccc([N+](=O)[O-])cc1)c1ccccc1 [Benzoyl tyrosine-p-nitroanilide]
- Relative Activity [1]: 0.00%
- Relative Activity [2]: 0.00%

Molecule: N[C@@H](CCC(=O)O)C(=O)Nc1ccc([N+](=O)[O-])cc1 [Glutamic acid-p-nitroanilide]
- Relative Activity [1]: 0.00%
- Relative Activity [2]: 0.00%

Molecule: diisopropyl phosphochloride
- inhibition of the enzyme (in words) (Achromobacter protease I): strongly inhibited

Molecule: CC(C)C[C@H](N)C(=O)Nc1ccc([N+](=O)[O-])cc1 [Leucine-p-nitroanilide]
- Relative Activity [1]: 0.00%
- Relative Activity [2]: 0.00%

Molecule: C[C@H](N)C(=O)Nc1ccc([N+](=O)[O-])cc1 [Alanine-p-nitroanilide]
- Relative Activity [1]: 0.00%
- Relative Activity [2]: 0.00%

Molecule: Cc1ccc(S(=O)(=O)N[C@@H](Cc2ccccc2)C(=O)CCl)cc1 [tosyl-L-phenylalanine chloromethyl ketone]
- Relative Activity (PLP-Ia; 1000 µM): 92.2%
- inhibition of the enzyme (in words) (Achromobacter protease I): not inhibited

Molecule: NiCℓ₂
- Relative Activity (PLP-Ia; 1000 µM): 83.8%

Molecule: O[C@H](CS)[C@H](O)CS (racemic) [dithiothreitol]
- Relative Activity (PLP-Ia; 1000 µM): 103.9%

Molecule: NCCCC[C@H](NC(=O)c1ccccc1)C(=O)Nc1ccc([N+](=O)[O-])cc1 [Benzoyl lysine-p-nitroanilide]
- Relative Activity [1]: 100%
- Relative Activity [2]: 100%

Molecule: [Cl][Hg][Cl] [HgCℓ₂]
- Relative Activity (PLP-Ia; 100 µM): 109.4%

Molecule: c1cnc2c(c1)ccc1cccnc12 [o-phenanthroline]
- Relative Activity (PLP-Ia; 1000 µM): 99.3%
- inhibition of the enzyme (in words) (Achromobacter protease I): not inhibited

Molecule: N[C@@H](CS)C(=O)O [L-cystein]
- Relative Activity (PLP-Ia; 1000 µM): 97.8%

Molecule: O=S(=O)(F)Cc1ccccc1 [phenylmethylsulfonyl fluoride]
- inhibition of the enzyme (in words) (PLP-Ia): undergoes inhibition
- Relative Activity (PLP-Ia; 2000 µM): 18.3%

Molecule: [Cl-].[Cl-].[Zn+2] [ZnCℓ₂]
- inhibition of the enzyme (in words) (PLP-Ia): inhibited
- Relative Activity (PLP-Ia; 1000 µM): 44.1%

Molecule: Cc1ccc(S(=O)(=O)N[C@@H](CCCCN)C(=O)CCl)cc1 [tosyl-L-lysine chloromethyl ketone]
- inhibition of the enzyme (in words) (PLP-Ia): undergoes inhibition
- Relative Activity (PLP-Ia; 100 µM): 0%
- inhibition of the enzyme (in words) (Achromobacter protease I): strongly inhibited

Source: patent EP0367302A2, “Process for semi-synthesis of human insulin, water-soluble cross-linked Achromobacter protease I for use therein and a process for preparing the same” (priority 1982, dated 1983)
